From US8309766B2 (Obschestvo S. Organichennoi Otvetstvennostiyu …, priority 2005, dated 2012)

Key:
HL-60 cells = details: Chen et al., Chinese Pharmaceutical Journal 2001; cited from earlier work
gastric mucosa of rats = assay: Ulcerogenic effect on gastric mucosa; type: in vivo, outbreed rats; details: 30 mg/kg once intragastrally, at 24 hours, M ± m
Procedure: The tests were carried out on females of outbreed rats weighing 300-320 grams. The compounds tested were administered once intragastrally at a dose 30 mg/kg to rats deprived of feed for 24 hours prior to the test. Animals in the control group were administered distilled water in the same volume. At 24 hours the animals were sacrificed and stomachs were extracted. An empty stomach was filled with 2% formalin solution and it was placed into a beaker with formalin. 30 minutes later, the stomach was opened along the great curvature, expanded on a slide, fixed and washed with distilled water. Using the magnifying glass MBS-9 (8-fold magnification) length and width of gastric mucosa defects was measured and area in mm^2 was calculated (1 division of the magnifying glass ruler=0.1 mm). Ulcerogenic effect of a substance was assessed by ulcerous lesion area of gastric mucosa according to the technique presented in Rukovodstvo po experimental'nomu (doklinicheskomu) izucheniju novykh pharmacologicheskikh veshchestv (the Guide on Experimental (pre-clinical) Study of Novel Pharmacological Substances)./Moscow. “Remedium” publishers. 2000, 398 pages.

[1] = tested on: carrageenan edema of rat paw; assay: Carrageenan edema of rat paw; type: in vivo, outbreed white rats; details: rats; 10% ointment; 4 hours post carrageenan
Procedure: The tests were conducted on males of outbreed white rats weighing 250-270 grams. The model of carrageenan edema was used which model is described in Winter et al. In: DeRosa M., Giroud J. P. Willoughby D. A. Studies of the mediators of acute inflammatory response induced in rats in different sites by carrageenan and turpentine.//J. Pharmacol. 1971. V. 104. P. 15-29.
0.1 ml 1% carrageenan solution (SERVA) was subplantarly injected into a right paw of rats. The animals were placed into individual chambers. […] Paw volume was measured using a pletismometer (Ugo Besile) at 4 hours post carrageenan administration. Therapeutic effect of the ointment was assessed by the inhibition degree of inflammatory reaction as compared to an intact left paw of the given animal and to a paw reaction of a control (untreated) group of rats. Inhibition of inflammatory reaction expressed in percent was calculated according to the formula: […]

Compound	cellular differentiation (HL-60 cells)	Area of ulcerous lesion (gastric mucosa of rats) [mm^2]	Edema inhibition (%) [1] [%]	Paw volume gain (%) [1] [%]
O=C(Cc1ccccc1)N[C@@H](Cc1ccccc1)C(=O)O [XIX, phenylacetylphenylalanine]	inductor of cellular differentiation	–	–	–
COc1ccc2c(c1)c(CC(=O)O)c(C)n2C(=O)c1ccc(Cl)cc1 [Indomethacin, reference compound]	–	7.3 ± 1.75	50.0	45.0
